Reference: US20080057047A1, “Use of bacillus amyloliquefaciens PB6 for the prophylaxis or treatment of gastrointestinal and immuno-related diseases” (priority 2005, published 2008)
Converted amounts (≈) assume the structure as drawn. Like-named read-outs stand apart in the source and are kept apart here. Numbered stars: 1 amine (or outer) side, 2 acyl side, 3 side chain; on linkers, the order of the positions; unused ones are H or OH. Bridge positions count the residues as written; N and C are the ends. Square brackets hold non-standard residues; d marks the D form. Peptide text beside a SMILES is read from it. X1 = CC(C)CCCCCCCCC[C@H](CC(=O)[*:1])O[*:2]

Key:
TNBS-induced colitis = TNBS-induced colitis in rats; format: in vivo, Wistar rats; conditions: for number of observations of diarrhea recorded / number of animals affected by diarrhea: day 1 to 7
Excerpt: Two consecutive trials were done. Male Wistar rats were obtained from the National Centre for Laboratory Animal Sciences (Hyderabad, India) (trial 1) or from the Department of Animal Medicine, […], India) (trial 2). […] Upon their arrival at the test facility, the animals were given a complete clinical examination under the supervision of a veterinarian to ensure that they were in good condition. The animals were acclimatized to the study conditions for a period of at least 7 days. Per trial, animals were randomised and allocated to one of the study groups. […] All animals had free access (except for the overnight fasting prior to TNBS administration) to rat pellet feed from the National Institute of Nutrition (NIN, Hyderabad, India) and Aquaguard purified water ad libitum. In both trials the day of induction of colitis was set as day 1. […] The colitis-negative control groups were given saline intrarectally (0.5 ml per animal once) on day 1. […] Except for infliximab, which was injected intravenously^59, all treatments were administered by gavage. Twice daily observations were made for clinical signs and mortality. […] These segments were opened longitudinally. […] Mesalazine (Mesacol®, Sun Pharmaceutical Ind. Ltd, Mumbai, India) tablets were powdered using pestle and mortar and a solution in distilled water was prepared containing 25 mg 5-aminosalicylic acid per ml. […] Remicade® (Infliximab) (Centocor B. V., Leiden, The Netherlands) was first reconstituted with 10 ml water for injection and was further diluted to 2 mg/ml concentration using saline. […] All body weight dependant doses were administered on the basis of the last individual body weight taken. Fresh preparations were made prior to each administration. The preparations were stirred vigorously before each dosing.

[1] = system: Clostridium difficile ATCC 9689; assay: Clindamycin-induced CDAD hamster model; format: in vivo, Golden Syrian hamsters; conditions: for diarrhea score / Number of animals with diarrhea: vancomycin 50 mg/Kg oral once daily days 2-6; for Number of animals tested positive for C difficile toxins A or B in faeces: vancomycin
[2] = Immune response (phagocytosis) in male broilers; format: in vivo; conditions: 100 mg/kg zinc bacitracin
Clostridium perfringens = assay: microbe, parasite or virus in culture; format: cell-based
C. perfringens ATCC13124 = assay: microbe, parasite or virus in culture; format: cell-based; conditions: Clostridium perfringens, ATCC13124, 18 h
cytosolic PLA2 = biological target: T1, cytosolic PLA2 (Homo sapiens, UniProt P47712); conditions: known from literature; cited from earlier work
T1 sequence (P47712 1-749): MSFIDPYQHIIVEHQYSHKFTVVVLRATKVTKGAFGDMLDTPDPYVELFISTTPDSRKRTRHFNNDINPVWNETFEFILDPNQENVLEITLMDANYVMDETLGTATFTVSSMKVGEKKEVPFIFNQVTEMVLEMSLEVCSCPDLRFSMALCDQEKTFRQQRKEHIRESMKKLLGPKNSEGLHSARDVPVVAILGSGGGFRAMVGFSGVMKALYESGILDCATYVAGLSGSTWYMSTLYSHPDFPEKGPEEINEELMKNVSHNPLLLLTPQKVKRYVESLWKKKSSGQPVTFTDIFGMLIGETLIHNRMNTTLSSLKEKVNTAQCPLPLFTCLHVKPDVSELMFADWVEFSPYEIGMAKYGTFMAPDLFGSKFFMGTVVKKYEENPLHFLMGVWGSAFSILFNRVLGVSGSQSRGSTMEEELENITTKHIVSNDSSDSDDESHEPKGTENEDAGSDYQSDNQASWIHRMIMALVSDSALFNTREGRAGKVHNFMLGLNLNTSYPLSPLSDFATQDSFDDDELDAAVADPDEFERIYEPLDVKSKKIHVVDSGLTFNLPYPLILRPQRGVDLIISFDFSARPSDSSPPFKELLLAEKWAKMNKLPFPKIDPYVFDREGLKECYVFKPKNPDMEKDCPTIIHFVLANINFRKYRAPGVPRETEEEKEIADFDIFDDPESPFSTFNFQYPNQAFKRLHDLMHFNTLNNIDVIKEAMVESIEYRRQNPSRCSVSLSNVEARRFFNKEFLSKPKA

[3] = Trial 1, Day 1 (baseline), mesalazine 250 mg/Kg/day, infliximab 3 mg/Kg single i.v. dose
[4] = Trial 1, Day 1 to 7, mesalazine 250 mg/Kg/day, infliximab 3 mg/Kg single i.v. dose
[5] = Trial 1, Day 4, mesalazine 250 mg/Kg/day, infliximab 3 mg/Kg single i.v. dose
[6] = Trial 1, Day 7, mesalazine 250 mg/Kg/day, infliximab 3 mg/Kg single i.v. dose
[7] = Trial 1, scale 0-5, mesalazine 250 mg/Kg/day, infliximab 3 mg/Kg single i.v. dose
[8] = Trial 1, mesalazine 250 mg/Kg/day, infliximab 3 mg/Kg single i.v. dose
[9] = Trial 2, Day 1 (baseline), PB6 and S. boulardii 1.5 10^8 CFU/Kg 3 times daily, mesalazine 250 mg/Kg/day, infliximab 3 mg/Kg single dose
[10] = Trial 2, Day 1 to 7, doses as for Day 1
[11] = Trial 2, Day 4, doses as for Day 1
[12] = Trial 2, Day 7, doses as for Day 1
[13] = Trial 2, scale 0-5, PB6 and S. boulardii 1.5 10^8 CFU/Kg 3 times daily, mesalazine 250 mg/Kg/day, infliximab 3 mg/Kg single dose
[14] = Trial 2, PB6 and S. boulardii 1.5 10^8 CFU/Kg 3 times daily, mesalazine 250 mg/Kg/day, infliximab 3 mg/Kg single dose
[15] = first trial, mesalazine 250 mg/Kg/day, infliximab 3 mg/Kg single dose
[16] = second trial, PB6 and S. boulardii 3×1.5 10^8 CFU/Kg/day, mesalazine 250 mg/Kg/day, infliximab 3 mg/Kg single dose
[17] = trial 1, one individual rat, infliximab 3 mg/Kg

Compound | Av. Body weight (TNBS-induced colitis; [3]) [g] | Av. Body weight gain (%) (TNBS-induced colitis; [4]) | Av. Body weight (TNBS-induced colitis; [5]) [g] | Av. Body weight (TNBS-induced colitis; [6]) [g] | Gross morphology score (TNBS-induced colitis; [7]) | Wet weight (g) of a 5 cm colon segment (TNBS-induced colitis; [8]) | Av. Body weight (TNBS-induced colitis; [9]) [g] | Av. Body weight gain (%) (TNBS-induced colitis; [10]) | Av. Body weight (TNBS-induced colitis; [11]) [g] | Av. Body weight (TNBS-induced colitis; [12]) [g] | Gross morphology score (TNBS-induced colitis; [13]) | Wet weight (g) of a 5 cm colon segment (TNBS-induced colitis; [14]) [g] | number of observations of diarrhea recorded (TNBS-induced colitis; [15]) | number of animals affected by diarrhea (TNBS-induced colitis; [16]) | number of observations of diarrhea recorded (TNBS-induced colitis; [16]) | further results
Nc1ccc(O)c(C(=O)O)c1 [Mesalazine, 5-aminosalicylic acid] | 181 ± 11 | 8.8 ± 1.4 | 187 ± 10 | 196 ± 10 | 0.8 ± 0.4 | 0.435 ± 0.052 g | 207 ± 12 | −3.3 ± 5.5 | 199 ± 18 | 201 ± 20 | 1.2 ± 0.8 | 0.445 ± 0.145 | 0 | 1 | 12 | 
CN[C@H](CC(C)C)C(=O)N[C@H]1C(=O)N[C@@H](CC(N)=O)C(=O)N[C@H]2C(=O)N[C@H]3C(=O)N[C@H](C(=O)N[C@H](C(=O)O)c4cc(O)cc(O)c4-c4cc3ccc4O)[C@H](O)c3ccc(c(Cl)c3)Oc3cc2cc(c3O[C@@H]2O[C@H](CO)[C@@H](O)[C@H](O)[C@H]2O[C@H]2C[C@](C)(N)[C@H](O)[C@H](C)O2)Oc2ccc(cc2Cl)[C@H]1O [Vancomycin, vancomycin] |  |  |  |  |  |  |  |  |  |  |  |  |  |  |  | Average body weight ([1]; Day 0 (baseline), CDAD induced, vancomycin 50 mg/Kg): 218.0 ± 4.6 g; diarrhea score ([1]; Day 1): +; Number of animals with diarrhea ([1]; Day 1, 6 animals): 1; Number of animals tested positive for C difficile toxins A or B in faeces ([1]; Day 1, 6 tested): 0; Number of animals with diarrhea ([1]; Day 2): 2; diarrhea score ([1]; Day 2): ++; Number of animals tested positive for C difficile toxins A or B in faeces ([1]; Day 2, 6 tested): 2; Number of animals with diarrhea ([1]; Day 3): 2; diarrhea score ([1]; Day 3): +++; Number of animals tested positive for C difficile toxins A or B in faeces ([1]; Day 7, 4 tested): 1; Survival at end of treatment period ([1]; day 6, vancomycin 50 mg/Kg once daily): 4 out of 6
zinc bacitracin |  |  |  |  |  |  |  |  |  |  |  |  |  |  |  | Phagocytosis [2]: 6.23
CC(C)CCCCCCCCC[C@@H]1CC(=O)N[C@@H](CCC(=O)O)C(=O)N[C@@H](CC(C)C)C(=O)N[C@H](CC(C)C)C(=O)N[C@@H](C(C)C)C(=O)N[C@@H](CC(=O)O)C(=O)N[C@H](CC(C)C)C(=O)N[C@@H](CC(C)C)C(=O)O1 [surfactin] (EL[dL]VD[dL]L; linker N-C via X1) |  |  |  |  |  |  |  |  |  |  |  |  |  |  |  | MIC (Clostridium perfringens; read-out: MIC (C. perfringens), 30′ 0.1 N HCl, 37° C.): 10 to 25 µg/mL (≈ 9.65 to 24.1 µM); MIC (Clostridium perfringens; read-out: MIC (C. perfringens), 60′ 0.1 N HCl, 37° C.): 25 to 50 µg/mL (≈ 24.1 to 48.2 µM); MIC (Clostridium perfringens; read-out: MIC (C. perfringens), 90′ 0.1 N HCl, 37° C.): 25 to 50 µg/mL (≈ 24.1 to 48.2 µM); MIC (Clostridium perfringens; read-out: MIC (C. perfringens), No HCL): 1 to 10 µg/mL (≈ 0.965 to 9.65 µM); MIC (C. perfringens ATCC13124): 10 to 25 µg/mL (≈ 9.65 to 24.1 µM); inhibition of the activity of cytosolic PLA2 (cytosolic PLA2): inhibits
Infliximab: Remicade® (Infliximab), Centocor, standard drug | 180 ± 14 | 1.3 ± 5.4 | 183 ± 7 | 186 ± 6 | 3.0 ± 1.4 | 1.055 ± 0.490‘ g | 208 ± 15 | −5.2 ± 3.4 | 197 ± 14 | 197 ± 13 | 2.0 ± 0.7 | 0.657 ± 0.076 | 8 | 2 | 24 | number of animals affected by diarrhea (TNBS-induced colitis; first trial, infliximab 3 mg/Kg single dose): 1; colon segment weight of one rat (TNBS-induced colitis; [17]): 0.402 g; gross morphology score of one rat (TNBS-induced colitis; [17]): 1
